Laboratory results: patent US20140364431A1, “Quinoline and cinnoline derivatives and their applications” (Shenyang Pharmaceutical University, priority 2011, published 2014)
≈ marks a conversion by molar mass, not a printed value. Read-outs that look alike come from different tables or passages of the source.

Legend:
[1] = test system: SMMC-7721 (hepatoma cell); experiment: In vitro anti-tumor cellular activity (MTT), SMMC-7721; format: cell-based, human; settings: Homo sapiens, read-out: SMMC-7721 IC50
[2] = target: T1, c-Met (His-tagged recombinant human Met (Amino acids 974-ends)) (Homo sapiens, UniProt P08581); experiment: c-Met kinase assay (ELISA); format: biochemical; settings: 50 pM c-Met, 5 μM ATP, 20 min
T1 construct: His-tagged recombinant human Met (Amino acids 974-ends); His; host or cells: baculovirus expression
T1 sequence (P08581 974-1390 limits assumed): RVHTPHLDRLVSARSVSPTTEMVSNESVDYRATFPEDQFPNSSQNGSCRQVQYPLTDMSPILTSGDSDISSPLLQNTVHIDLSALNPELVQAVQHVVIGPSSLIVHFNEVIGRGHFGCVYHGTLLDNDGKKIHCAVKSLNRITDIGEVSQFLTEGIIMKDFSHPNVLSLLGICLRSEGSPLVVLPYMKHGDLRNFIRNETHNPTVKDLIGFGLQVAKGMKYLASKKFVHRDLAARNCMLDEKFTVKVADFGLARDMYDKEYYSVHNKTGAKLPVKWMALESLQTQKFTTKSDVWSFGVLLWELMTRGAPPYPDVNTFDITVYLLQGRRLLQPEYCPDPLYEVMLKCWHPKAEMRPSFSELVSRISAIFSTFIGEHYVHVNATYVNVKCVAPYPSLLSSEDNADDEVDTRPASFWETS
Procedure: c-Met kinase activity was measured with an ELISA reader.
The reaction mixture was removed by washing with 0.2 μg/mL conjugated horseradish peroxidase (HRP) monoclonal antibody specific for phosphotyrosine (PY20) detecting phosphorylation of the substrate polymer. 1M phosphoric acid was added to terminate the color, the chromogenic substrate (TMB) was tested by spectrophotometry at 450 nm.

[3] = test system: U87MG (Human malignant glioblastoma cells); experiment: In vitro anti-tumor cellular activity (MTT), U87MG; format: cell-based; settings: Homo sapiens, U-87 MG, read-out: U87MG IC50
[4] = test system: HT-29 (colon cancer cell); experiment: In vitro anti-tumor cellular activity (MTT), HT-29; format: cell-based, human; settings: Homo sapiens, read-out: HT-29 IC50
[5] = test system: H460 (human lung cancer cell); experiment: In vitro anti-tumor cellular activity (MTT), H460; format: cell-based; settings: Homo sapiens, read-out: H460 IC50
[6] = test system: MKN-45 (human gastric carcinoma cell); experiment: In vitro anti-tumor cellular activity (MTT), MKN-45; format: cell-based; settings: Homo sapiens, read-out: MKN-45 IC50

SMILES	IC50 ([1]; MTT, 72 hours, SMMC-7721)	IC50 [2]	IC50 ([3]; MTT, 72 hours, U87MG)	IC50 ([4]; MTT, 72 hours, HT-29)	IC50 ([5]; NCI-H460, MTT, 72 hours, H460)	IC50 ([6]; MTT, 72 hours, MKN-45)	IC50 ([1]; SMMC-7721, 72 h)	IC50 ([3]; 72 h)	IC50 ([4]; HT-29, 72 h)	IC50 ([5]; NCI-H460, 72 h)	IC50 ([6]; MKN-45, 72 h)
COc1cc2c(Oc3ccc(NC(=O)c4nn(-c5ccccc5C(F)(F)F)c5ccccc5c4=O)cc3F)ccnc2cc1OCCCN1CCCC1.Cl.Cl [Example 1, N-(3-fluoro-4-((6-methoxy-7-(3-(pyrrolidin-1-yl)propoxy)quinolin-4-yl)oxy)phenyl)-1-(2-(trifluoromethyl)phenyl)-4-oxo-1,4-dihydrocinnoline-3-carboxamide dihydrochloride]	0.57 µg/mL	62.5 nM	0.18 µg/mL	0.18 µg/mL	0.04 µg/mL	0.27 µg/mL					
COc1cc2c(Oc3ccc(NC(=O)c4nn(-c5ccc(F)c(F)c5)c5ccccc5c4=O)cc3F)ccnc2cc1OCCCN1CCCCC1 [Example 11, N-(3-fluoro-4-((6-methoxy-7-(3-(piperidin-1-yl)propoxy)quinolin-4-yl)oxy)phenyl)-1-(3,4-difluorophenyl)-4-oxo-1,4-dihydrocinnoline-3-carboxamide]	0.63 µg/mL (≈ 0.888 µM)	42.3 nM	3.5 µg/mL (≈ 4.93 µM)	0.38 µg/mL (≈ 0.535 µM)	0.06 µg/mL (≈ 0.0845 µM)	0.12 µg/mL (≈ 0.169 µM)					
COc1cc2c(Oc3ccc(NC(=O)c4nn(-c5ccc(F)cc5Br)c5ccccc5c4=O)cc3F)ccnc2cc1OCCCN1CCN(C)CC1 [Example 19, N-(3-fluoro-4-((6-methoxy-7-(3-(4-methylpiperazin-1-yl)propoxy)quinolin-4-yl)oxy)phenyl)-1-(2-bromo-4-fluorophenyl)-4-oxo-1,4-dihydrocinnoline-3-carboxamide]	1.6 µg/mL (≈ 2.04 µM)	1530 nM	1.2 µg/mL (≈ 1.53 µM)	0.54 µg/mL (≈ 0.687 µM)	2.2 µg/mL (≈ 2.8 µM)	0.86 µg/mL (≈ 1.09 µM)					
COc1cc2c(Oc3ccc(NC(=O)c4nn(-c5ccccc5OC(F)(F)F)c5ccccc5c4=O)cc3F)ccnc2cc1OCCCN1CCOCC1 [Example 37, N-(3-fluoro-4-((6-methoxy-7-(3-(morpholin-4-yl)propoxy)quinolin-4-yl)oxy)phenyl)-1-(2-(trifluoromethoxy)phenyl)-4-oxo-1,4-dihydrocinnoline-3-carboxamide]							1.5 µg/mL (≈ 1.97 µM)	2.1 µg/mL (≈ 2.76 µM)	0.9 µg/mL (≈ 1.18 µM)	1.9 µg/mL (≈ 2.5 µM)	2.3 µg/mL (≈ 3.03 µM)
COc1cc2c(Oc3ccc(NC(=O)c4nn(-c5ccccc5F)c5ccccc5c4=O)cc3F)ccnc2cc1OCCCN1CCCC1 [Example 41, N-(3-fluoro-4-((6-methoxy-7-(3-(pyrrolidin-1-yl)propoxy)quinolin-4-yl)oxy)phenyl)-1-(2-fluorophenyl)-4-oxo-1,4-dihydrocinnoline-3-carboxamide]		2070 nM									
COc1cc2c(Oc3ccc(NC(=O)c4nn(-c5ccc(F)cc5)c5ccccc5c4=O)cc3F)ccnc2cc1OCCCN1CCN(C)CC1 [Example 42, N-(3-fluoro-4-((6-methoxy-7-(3-(4-methylpiperazin-1-yl)propoxy)quinolin-4-yl)oxy)phenyl)-1-(4-fluorophenyl)-4-oxo-1,4-dihydrocinnoline-3-carboxamide]	1.6 µg/mL (≈ 2.26 µM)	1410 nM	2.1 µg/mL (≈ 2.97 µM)	1.5 µg/mL (≈ 2.12 µM)	2.7 µg/mL (≈ 3.82 µM)						
COc1cc2c(Oc3ccc(NC(=O)c4cn(-c5ccc(F)c(F)c5)c5ccccc5c4=O)cc3F)ccnc2cc1OCCCN1CCCCC1 [Example 60, N-(3-fluoro-4-((6-methoxy-7-(3-(piperidin-1-yl)propoxy)quinolin-4-yl)oxy)phenyl)-1-(3,4-difluorophenyl)-4-oxo-1,4-dihydroquinoline-3-carboxamide]		409 nM									
COc1cc2c(Oc3ccc(NC(=O)c4nn(-c5cccc(F)c5)c5ccccc5c4=O)cc3F)cnnc2cc1OCCCN1CCN(C)CC1 [Example 62, N-(3-fluoro-4-((6-methoxy-7-(3-(4-methylpiperazin-1-yl)propoxy)cinnolin-4-yl)oxy)phenyl)-1-(3-fluorophenyl)-4-oxo-1,4-dihydrocinnoline-3-carboxamide]	2.1 µg/mL (≈ 2.97 µM)		1.4 µg/mL (≈ 1.98 µM)	2.1 µg/mL (≈ 2.97 µM)	0.8 µg/mL (≈ 1.13 µM)	3.6 µg/mL (≈ 5.09 µM)					
COc1cc2c(Oc3ccc(NC(=O)c4nn(-c5ccccc5F)c5ccccc5c4=O)cc3F)cnnc2cc1OCCCN1CCCC1 [Example 63, N-(3-fluoro-4-((6-methoxy-7-(3-(pyrrolidin-1-yl)propoxy)cinnolin-4-yl)oxy)phenyl)-1-(2-fluorophenyl)-4-oxo-1,4-dihydrocinnoline-3-carboxamide]	0.9 µg/mL (≈ 1.33 µM)	1180 nM	1.8 µg/mL (≈ 2.65 µM)	1.3 µg/mL (≈ 1.92 µM)	1.6 µg/mL (≈ 2.36 µM)						
